Measured values: patent US4080471A, “Use of substituted isopropylaminopropanols for inducing inotropic effects of the human heart” (priority 1976, dated 1978)
“Also recorded” adds a separate entry of the source.

Tests used:
[1] = test system: heart; assay: Repetitive ventricular response (RVR) / spontaneous arrhythmia in the anesthetized dog; type: in vivo
Excerpt: (§1) Effects of Compound I and Ouabain On the Heart Contractility and Rhythmicity of the Anesthetized Dog
(§2) The object of the test was to compare compound I and oubain administered alone and in combination with each other to study the inotropic effect (maximum dP/dt in the left ventricle) and a possibly arrhythmic effect. The latter included an investigation of the ability of the compounds to cause repetitive ventricular response (RVR) when the heart was electrically stimulated via an electrode on the ventricle at the electrically vulnerable phase at the end of the T-wave. Klein et al. (M. Klein, N. S. Nejad, B. Lown, F. Hagemeijer and I. Blair, Circulation Research, 29, 635 (1971)) have shown that digitalis caused RVR at a dose which was about 70% of the dose giving spontaneous ventricular arrhythmias.
(§3) The dog was anesthetized with Mebumal® 30 mg/kg bodyweight i.v. Artificial respiration was applied. The sinus-node was electrocoagulated and the heart frequency was kept constant at 180 beats/minute in each test by electrical pacing of the auricle. Mean arterial blood pressure was registered from the carotis artery. ECG was registered during the test. Further, the pressure in the left ventricle was registered via a catheter inserted through the apex and connected to a pressure transducer. The intraventricular pressure curve was derivated to obtain maximum dP/dt which is a measure of the contractile force of the heart.
(§4) The test was started with a series of control registrations, whereupon the compounds were administered 3 times by infusion during five minutes and with an interval of 50 minutes between each infusion.
(§5) In the experiment with compound I only, the compound was administered in two doses of 10 μg/kg bodyweight and then one dose of 20 μg/kg bodyweight. Ouabain was given in 3 consecutive doses of 20 μg/kg bodyweight. In the combination test ouabain was first given in a dose of 20 μg/kg bodyweight followed by two doses of compound I of 10 and 20 μg/kg bodyweight, respectively.

[2] = target: T1, beta-receptors of the blood vessels (Felis catus, UniProt Q9TST5); assay: Vasodilatating effect (hind limb perfusion pressure) on anesthetized cat pretreated with reserpine; type: in vivo; conditions: cat, iv, read-out: ED50 Vasodilation
T1 construct: from tissue; host or cells: hind-limb vascular bed of the anaesthetized cat in vivo (constant-flow perfusion, reserpine-pretreated)
T1 sequence (Q9TST5 whole entry, the tested form may be a part): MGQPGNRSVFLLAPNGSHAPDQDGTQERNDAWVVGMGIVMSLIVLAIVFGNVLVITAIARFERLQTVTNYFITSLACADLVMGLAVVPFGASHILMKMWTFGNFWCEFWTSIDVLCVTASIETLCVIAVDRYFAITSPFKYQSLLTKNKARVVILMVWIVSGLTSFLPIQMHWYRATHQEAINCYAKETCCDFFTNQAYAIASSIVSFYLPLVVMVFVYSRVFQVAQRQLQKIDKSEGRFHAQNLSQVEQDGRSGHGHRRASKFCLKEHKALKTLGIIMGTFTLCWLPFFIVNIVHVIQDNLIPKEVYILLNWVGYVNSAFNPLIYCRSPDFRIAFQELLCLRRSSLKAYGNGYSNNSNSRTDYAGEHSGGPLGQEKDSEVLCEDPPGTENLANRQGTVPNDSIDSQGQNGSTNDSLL
Experimental: Chronotropic (heart frequency) and vasodilatating effects:
When the cats had been anaesthetized with Mebumal® 30 mg/kg bodyweight i.p., an artificial air respiration was started. The two vagus nerves were cut and the blood passing through a femoral artery was fed via a catheter and a pump back to the distal part of the vessel. Parallelly, a pressure transducer was connected by which the perfusion pressure was registered. At a perfusion with a constant flow, the perfusion pressure is directly proportional to the peripheral resistance of the vascular bed of the hind limb. Blood circulation in the foot was interrupted with a ligature. Heart frequency was registered with a cardiotachometer triggered by the ECG. The substances were administered intravenously in increasing doses and the dose-response curves of the heart frequency and the vasodilatation were constructed.
Further, the dose ratios (ED50 for vasodilatation/ED50 for heart frequency) are calculated. A dose ratio >1 indicates a heart selective effect.

[3] = test system: heart; assay: Effect on heart contractility (maximum dP/dt) of the anesthetized dog; type: in vivo
Excerpt: as §1, §2, §3, §4, §5

[4] = test system: heart; assay: Effect on heart chronotropy and inotropy of a conscious dog
Excerpt: During anesthesia a catheter was introduced in the aorta, an electromagnetic flow probe was placed around the ascending aorta, and induction coils were placed diametrically on the inside of the left ventricle. The experiments were started about 2 weeks after the incision, when the dog had recovered completely.
When the dog was resting, the arterial blood pressure, the flow in the aorta, the maximum flow acceleration in the aorta (maximum dF/dt), heart frequency, the diameter of the left ventricle, and ECG were registered. The effects of compounds I and II were registered at 10, 20, and 30 minutes after administration. […] The compounds were given intravenously in the following doses. […] In order to eliminate vagal influence on the heart the dog was pretreated with methyl scopolamine 0.012 mg/kg bodyweight intramuscularily 20 minutes before the administration of the compounds. From the data giving the diameter of the left ventricle, the end diastolic volume was calculated according to E. W. Hawthorne. Mean ejection rate (ml/sec.) was calculated by dividing the stroke volume with the ejection time. […] The values given are the percentage changes after administration when the heart frequency has increased 10 beats per minute, values interpolated. […] In order to compare the inotropic effects of ouabain with those of the other compounds, the heart was stimulated in these experiments by electric pacing to a frequency which was 10 beats/minute above that registered before administration.
In order to investigate the absorption and duration of the effect, compounds I and II were given orally in an amount of 100 μg/kg bodyweight.

[5] = test system: cardiac beta-receptors; assay: Chronotropic (heart frequency) and inotropic (maximum dP/dt) effects in reserpinized, anesthetized, vagotomized cat; type: in vivo
Experimental: Chronotropic (Heart Frequency) and Inotropic (Contractile Force) Effects
The mean blood pressure was regulated with an adjustable clamp around the descending aorta. All registrations were than able to be done at a constant pressure in aorta (afterload). The compounds were administered by infusion intravenously in increasing doses. The dose-response curves as regards the heart frequency and maximum dP/dt were constructed, from which the ED50 -values were estimated.
Maximum dP/dt is a measure of the contractile force of the heart, i.e. inotropy, but is influenced by changes in the heart frequency, filling pressure (preload) and aortic blood pressure (afterload). In this test, a comparison between inotropic and chronotropic effects can be done at the same heart frequency. Further, the aortic blood pressure is kept constant.

[6] = 20 minutes after administration, ouabain versus compound I
[7] = anesthetized dog, i.v. infusion
[8] = change i.v. at heart frequency +10 beats/min, interpolated, ouabain 30 μg/kg i.v., paced

Compound: CC(C)NCC(O)COc1ccc(O)cc1 (centres unmarked) [Compound I, 1-isopropylamino-3-(p-hydroxyphenoxy)-propanol-2]
- RVR or spontaneous arrhythmia (in words) ([1]; compound I 10 and 20 μg/kg bodyweight): did not in any case cause RVR or spontaneous arrhythmia
- arrhythmogenic effect in relation to inotropic effect, versus ouabain (in words) ([1]; dog, in vivo): evidently less arrhythmogenic effect than ouabain
- ED50 [2]: > 1 mg/kg
- increase of aortic blood pressure ([3]; 20 minutes after administration): no effect
- doses giving approximately the same level of maximum dP/dt (lower pair) [3, 6]: about 10 μg/kg bodyweight
- doses giving corresponding effect on maximum dP/dt (higher pair) [3, 6]: 20 μg/kg bodyweight
- effect on maximum dP/dt (in words) [3, 7]: increased the maximum dP/dt
- onset of effect on maximum dP/dt [3, 7]: immediate
- reduction of effect on maximum dP/dt after 50 minutes [3, 7]: almost completely reduced after 50 minutes
- ventricular contractility compared with ouabain (in words) ([3]; at same increase of maximum dP/dt): increased the ventricular contractility a little more than ouabain
- time of maximum effect, oral ([4]; 100 μg/kg bodyweight orally): 30 min
- Enddiastolic volume ([4]; change i.v. at heart frequency +10 beats/min, interpolated, calculated from left ventricle diameter, ouabain 30 μg/kg i.v., paced): -9%
- Stroke volume ([4]; change i.v. at heart frequency +10 beats/min, interpolated, methyl scopolamine pretreated, ouabain 30 μg/kg i.v., paced): 5%
- Mean arterial blood pressure [4, 8]: 0 mm Hg
- Peak aortic flow [4, 8]: 22%
- Mean ejection rate ([4]; change i.v. at heart frequency +10 beats/min, interpolated, stroke volume / ejection time, ouabain 30 μg/kg i.v., paced): 13%
- side effects ([4]; conscious dog, I and II 10 and 20 μg/kg, ouabain 30 μg/kg i.v.): No side effect was observed
- contractility / inotropic effect in conscious dog (in words) ([4]; i.v.): clear inotropic effect without any significant increase of the heart frequency; also recorded: increases the contractility of the left ventricle
- Max. dF/dt ([4]; maximum flow acceleration in aorta, change i.v. at heart frequency +10 beats/min, interpolated, ouabain 30 μg/kg i.v., paced): 43%
- oral effect (in words) ([4]; oral, 100 μg/kg bodyweight): good inotropic effect when administered perorally and an acceptable duration of action; also recorded: comparable with those obtained after intravenous administration of 20 μg/kg bodyweight
- positive inotropic effect compared with ouabain (in words) ([4]; versus relatively high dose of ouabain): quite comparable to the effect of a high dose of ouabain; also recorded: comparable to the effect of the relatively high dose of ouabain
- auricle pressure (filling pressure) ([5]; cat, i.v. infusion): decreased
- affinity to cardiac beta-receptors giving inotropic versus chronotropic effects (in words) ([5]; in vivo): higher affinity to cardiac beta-receptors, which give inotropic effects, than to beta-receptors in the sinus-node region, which give chronotropic effects
